Earlier results in PubChem BioAssay AID1259409 (Chemical Carcinogenesis Research Information System (CCRIS), 2018).

Tested on: rodent chemically induced tumor inhibition, incidence and multiplicity
Experiment: CCRIS tumor inhibitor studies

In the case of `CC(C)(C)c1cc(O)ccc1O`, the “tumour outcome (control, treated, inhibition, significance)” value (Carcinogen: 7,12-DIMETHYLBENZ[A]ANTHRACENE, 57-97-6, Dose [Inhibitor]: 0.8% IN POWDERED DIET BEGINNING 1 WK POST CARCINOGEN DOSE FOR 51 WK (STUDY DURATION: 52 WK), Route [Inhibitor]: ORAL, Species: RAT, Strain/Sex: SPRAGUE-DAWLEY/FEMALE, Target Tissue: Type of Lesion: EAR DUCT: BENIGN TUMOR, Dose [Carcinogen]: 2.5 MG/100 G BW IN 0.5 ML SESAME OIL ONCE, Promoter: NONE USED) is given as 7/19 (37%), 5/16 (31%), 15%, not calculated, the “tumour outcome (control, treated, inhibition, significance)” value (Carcinogen: 7,12-DIMETHYLBENZ[A]ANTHRACENE, 57-97-6, Dose [Inhibitor]: 0.8% IN POWDERED DIET BEGINNING 1 WK POST CARCINOGEN DOSE FOR 51 WK (STUDY DURATION: 52 WK), Route [Inhibitor]: ORAL, Species: RAT, Strain/Sex: SPRAGUE-DAWLEY/FEMALE, Target Tissue: Type of Lesion: MAMMARY GLAND: CARCINOMA, Dose [Carcinogen]: 2.5 MG/100 G BW IN 0.5 ML SESAME OIL ONCE, Promoter: NONE USED) is given as 6/19 (32%), 5/16 (31%), 0.9%, not calculated and the “tumour outcome (control, treated, inhibition, significance)” value (Carcinogen: 7,12-DIMETHYLBENZ[A]ANTHRACENE, 57-97-6, Dose [Inhibitor]: 0.8% IN POWDERED DIET BEGINNING 1 WK POST CARCINOGEN DOSE FOR 51 WK (STUDY DURATION: 52 WK), Route [Inhibitor]: ORAL, Species: RAT, Strain/Sex: SPRAGUE-DAWLEY/FEMALE, Target Tissue: Type of Lesion: MAMMARY GLAND: FIBROADENOMA, Dose [Carcinogen]: 2.5 MG/100 G BW IN 0.5 ML SESAME OIL ONCE, Promoter: NONE USED) is given as 15/19 (79%), 4/16 (24%), 70%, p<0.001. For the same compound, the “tumour outcome (control, treated, inhibition, significance)” value (Carcinogen: BENZO[A]PYRENE, 50-32-8, Dose [Inhibitor]: 0.03 MMOL/G OF DIET DAILY STARTING 8 D BEFORE AND CONTINUING THROUGH 3 D AFTER CARCINOGEN TREATMENT FOLLOWED BY OBSERVAT, Route [Inhibitor]: ORAL, Species: MOUSE, Strain/Sex: ICR/FEMALE, Target Tissue: Type of Lesion: FORESTOMACH: NEOPLASM, Dose [Carcinogen]: 1 MG IN 0.2 ML CORN OIL 2/WK FOR 4 WK, Promoter: NONE USED) was 94%, 85%, 10%, not significant, the “tumour outcome (control, treated, inhibition, significance)” value (Carcinogen: N-METHYL-N'-NITRO-N-NITROSOGUANIDINE, 70-25-7, N-ETHYL-N-HYDROXYETHYLNITROSAMINE, 13147-25-6, N-METHYLBENZYLNITROSAM, Carcinogen: N-METHYL-N'-NITRO-N-NITROSOGUANIDINE, 70-25-7, N-ETHYL-N-HYDROXYETHYLNITROSAMINE, 13147-25-6, N-METHYLBENZYLNITROSAM, Dose [Inhibitor]: 0, 1% IN DIET FOR 36 WK (STUDY DURATION: 36 WK), Route [Inhibitor]: ORAL, Species: RAT, Strain/Sex: F344/MALE, Target Tissue: Type of Lesion: COLON: CARCINOMA, Dose [Carcinogen]: 100 MG/KG BW MNNG ONCE, 750 MG/KG BW EHEN ONCE, 0.5 MG/KG BW MBN TWICE, 40 MG/KG BW DMH 4 TIMES, 0.05% DBN IN DRINKING W, Promoter: NONE USED) was 10/18 (56%), 4/18 (22%), 61%, not calculated and the “tumour outcome (control, treated, inhibition, significance)” value (Carcinogen: N-METHYL-N'-NITRO-N-NITROSOGUANIDINE, 70-25-7, N-ETHYL-N-HYDROXYETHYLNITROSAMINE, 13147-25-6, N-METHYLBENZYLNITROSAM, Carcinogen: N-METHYL-N'-NITRO-N-NITROSOGUANIDINE, 70-25-7, N-ETHYL-N-HYDROXYETHYLNITROSAMINE, 13147-25-6, N-METHYLBENZYLNITROSAM, Dose [Inhibitor]: 0, 1% IN DIET FOR 36 WK (STUDY DURATION: 36 WK), Route [Inhibitor]: ORAL, Species: RAT, Strain/Sex: F344/MALE, Target Tissue: Type of Lesion: ESOPHAGUS: PAPILLOMA, Dose [Carcinogen]: 100 MG/KG BW MNNG ONCE, 750 MG/KG BW EHEN ONCE, 0.5 MG/KG BW MBN TWICE, 40 MG/KG BW DMH 4 TIMES, 0.05% DBN IN DRINKING W, Promoter: NONE USED) was 3/18 (17%), 15/18 (83%), -388%, p<0.001. For the same compound, the “tumour outcome (control, treated, inhibition, significance)” value (Carcinogen: N-METHYL-N'-NITRO-N-NITROSOGUANIDINE, 70-25-7, N-ETHYL-N-HYDROXYETHYLNITROSAMINE, 13147-25-6, N-METHYLBENZYLNITROSAM, Carcinogen: N-METHYL-N'-NITRO-N-NITROSOGUANIDINE, 70-25-7, N-ETHYL-N-HYDROXYETHYLNITROSAMINE, 13147-25-6, N-METHYLBENZYLNITROSAM, Dose [Inhibitor]: 0, 1% IN DIET FOR 36 WK (STUDY DURATION: 36 WK), Route [Inhibitor]: ORAL, Species: RAT, Strain/Sex: F344/MALE, Target Tissue: Type of Lesion: FORESTOMACH: PAPILLOMA, Dose [Carcinogen]: 100 MG/KG BW MNNG ONCE, 750 MG/KG BW EHEN ONCE, 0.5 MG/KG BW MBN TWICE, 40 MG/KG BW DMH 4 TIMES, 0.05% DBN IN DRINKING W, Promoter: NONE USED) was 6/18 (33%), 15/18 (83%), -151%, p<0.01 and the “tumour outcome (control, treated, inhibition, significance)” value (Carcinogen: N-METHYL-N'-NITRO-N-NITROSOGUANIDINE, 70-25-7, N-ETHYL-N-HYDROXYETHYLNITROSAMINE, 13147-25-6, N-METHYLBENZYLNITROSAM, Carcinogen: N-METHYL-N'-NITRO-N-NITROSOGUANIDINE, 70-25-7, N-ETHYL-N-HYDROXYETHYLNITROSAMINE, 13147-25-6, N-METHYLBENZYLNITROSAM, Dose [Inhibitor]: 0, 1% IN DIET FOR 36 WK (STUDY DURATION: 36 WK), Route [Inhibitor]: ORAL, Species: RAT, Strain/Sex: F344/MALE, Target Tissue: Type of Lesion: KIDNEY: RENAL CELL TUMOR, Dose [Carcinogen]: 100 MG/KG BW MNNG ONCE, 750 MG/KG BW EHEN ONCE, 0.5 MG/KG BW MBN TWICE, 40 MG/KG BW DMH 4 TIMES, 0.05% DBN IN DRINKING W, Promoter: NONE USED) was 8/18 (44%), 5/18 (28%), 36%, not calculated.
In the case of `CC(C)[C@H]1C=C[C@H](O)CC1`, the “tumour outcome (control, treated, inhibition, significance)” value (Carcinogen: 7,12-DIMETHYLBENZ[A]ANTHRACENE, 57-97-6, Dose [Inhibitor]: 0, 12 NMOL PER REPEATED APPLICATION FOR 20 WK (STUDY DURATION: 20 WK), Route [Inhibitor]: DERMAL, Species: MOUSE, Strain/Sex: CD-1/FEMALE, Target Tissue: Type of Lesion: SKIN: TUMOR, Dose [Carcinogen]: 100 UG ONCE, Promoter: OKADAIC ACID, 78111-17-8) is given as 87%, 53%, 39%, not calculated.
In the case of `O=c1[nH]cnc2[nH]ncc12`, the “tumour outcome (control, treated, inhibition, significance)” value (Carcinogen: N-BUTYL-N-(4-HYDROXYBUTYL)NITROSAMINE, 3817-11-6, Dose [Inhibitor]: 0.02% DIET DAILY FOR 34 WK STARTING AFTER CARCINOGEN TREATMENT (STUDY DURATION: 38 WK), Route [Inhibitor]: ORAL, Species: RAT, Strain/Sex: F344/MALE, Target Tissue: Type of Lesion: URINARY BLADDER: PAPILLOMA, Dose [Carcinogen]: 0.01% IN DRINKING WATER FOR 4 WK, Promoter: NONE USED) is given as 33%, 43%, -30%, not significant.
For `CC(=O)Nc1ccc(O)cc1`, the “tumour outcome (control, treated, inhibition, significance)” value (Carcinogen: 4-(METHYLNITROSAMINO)-1-(3-PYRIDYL)-1-BUTANONE, 64091-91-4, Dose [Inhibitor]: 0, 1520 MMOL/KG BW/D IN DIET FOR DURATION OF STUDY BEGINNING 2 WK PRIOR TO CARCINOGEN TREATMENT (STUDY DURATION: 25 WK), Route [Inhibitor]: ORAL, Species: MOUSE, Strain/Sex: STRAIN-A/FEMALE, Target Tissue: Type of Lesion: LUNG:TUMOR, Dose [Carcinogen]: 2.2 MMOL/KG BW (TOTAL DOSE) ADMINISTERED IN DRINKING WATER FOR 7 WK, Promoter: NONE USED) is given as 29/29 (100%), 25/25 (100%), 0%, not significant, the outcome (Carcinogen: N-ETHYL-N-HYDROXYETHYLNITROSAMINE, 13147-25-6, Dose [Inhibitor]: 1.3% IN DIET BEGINNING 1 WK AFTER LAST CARCINOGEN TREATMENT AND CONTINUING THROUGH DURATION OF STUDY (STUDY DURATION: 32, Route [Inhibitor]: ORAL, Species: RAT, Strain/Sex: F344/MALE, Target Tissue: Type of Lesion: KIDNEY: ADENOCARCINOMA, Dose [Carcinogen]: 0.1% IN DRINKING WATER FOR 2 WK AT BEGINNING OF STUDY, Promoter: NONE USED) is given as 0/23 (0%), 1/23 (4%), not significant and the “tumour outcome (control, treated, inhibition, significance)” value (Carcinogen: N-ETHYL-N-HYDROXYETHYLNITROSAMINE, 13147-25-6, Dose [Inhibitor]: 1.3% IN DIET BEGINNING 1 WK AFTER LAST CARCINOGEN TREATMENT AND CONTINUING THROUGH DURATION OF STUDY (STUDY DURATION: 32, Route [Inhibitor]: ORAL, Species: RAT, Strain/Sex: F344/MALE, Target Tissue: Type of Lesion: KIDNEY: ADENOMA, Dose [Carcinogen]: 0.1% IN DRINKING WATER FOR 2 WK AT BEGINNING OF STUDY, Promoter: NONE USED) is given as 5/23 (22%), 15/27 (56%), -154%, p<0.01. For the same compound, the “tumour outcome (control, treated, inhibition, significance)” value (Carcinogen: N-ETHYL-N-HYDROXYETHYLNITROSAMINE, 13147-25-6, Dose [Inhibitor]: 1.3% IN DIET BEGINNING 1 WK AFTER LAST CARCINOGEN TREATMENT AND CONTINUING THROUGH DURATION OF STUDY (STUDY DURATION: 32, Route [Inhibitor]: ORAL, Species: RAT, Strain/Sex: F344/MALE, Target Tissue: Type of Lesion: LIVER: HEPATOCELLULAR CARCINOMA, Dose [Carcinogen]: 0.1% IN DRINKING WATER FOR 2 WK AT BEGINNING OF STUDY, Promoter: NONE USED) was 11/23 (48%), 3/27 (11%), 77%, p<0.05.
